Test system: Oats
Experiment: Glasshouse trial: adjuvant effect when applied with glyphosate to control oats
Assay type: in vivo
Settings: no adjuvant, 14 days after treatment
Description: In this example, the adjuvant effect of Compositions C and D from Example 1 was compared with a range of commercially available adjuvants when applied with glyphosate in 2 water hardnesses to control oats in a glasshouse.

## O=C(O)CNCP(=O)(O)O [Glyphosate, glyphosate]
Glyphosate 50 g a.i./ha, water hardness 50 ppm CaCO3, oats 1.5-2 leaf
  Fresh Weight % of untreated control: 73 % of untreated control
Glyphosate 50 g a.i./ha, water hardness 300 ppm CaCO3
  Fresh Weight % of untreated control: 106 % of untreated control
Glyphosate 100 g a.i./ha, water hardness 50 ppm CaCO3
  Fresh Weight % of untreated control: 52 % of untreated control
Glyphosate 100 g a.i./ha, water hardness 300 ppm CaCO3
  Fresh Weight % of untreated control: 65 % of untreated control

Source: patent US8975214B2, “Emulsion adjuvant for herbicides” (Innovative Chemical Services Pty Ltd, priority 2010, dated 2015)
